Test results from patent publication US9169254B2, “Spiroimidazolone derivative” (Chugai Seiyaku Kabushiki Kaisha, priority 2009, dated 2015).

Biological target: T1, human PTH1 receptor (Homo sapiens, UniProt Q03431)
T1 sequence (Q03431 27-593): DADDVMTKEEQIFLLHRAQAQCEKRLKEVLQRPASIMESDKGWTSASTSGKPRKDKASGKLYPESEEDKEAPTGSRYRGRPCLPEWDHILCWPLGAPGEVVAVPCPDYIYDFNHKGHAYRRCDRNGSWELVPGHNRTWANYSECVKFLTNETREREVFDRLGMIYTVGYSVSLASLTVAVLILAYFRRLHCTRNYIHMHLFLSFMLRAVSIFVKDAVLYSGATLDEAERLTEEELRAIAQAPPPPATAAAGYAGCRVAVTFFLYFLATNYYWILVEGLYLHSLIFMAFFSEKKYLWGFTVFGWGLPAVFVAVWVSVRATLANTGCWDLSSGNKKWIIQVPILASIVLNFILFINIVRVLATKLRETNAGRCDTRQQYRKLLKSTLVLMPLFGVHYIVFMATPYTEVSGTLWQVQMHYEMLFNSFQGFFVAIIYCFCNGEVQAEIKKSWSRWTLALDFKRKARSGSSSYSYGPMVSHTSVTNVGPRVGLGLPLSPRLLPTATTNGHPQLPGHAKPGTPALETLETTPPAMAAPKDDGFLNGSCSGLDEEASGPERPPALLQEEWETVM
Assay: In vitro cAMP signal activity in HKRK-B7 cells (LLC-PK1 cells overexpressing the human PTH1 receptor)
Assay type: cell-based
Conditions: HKRK-B7 cells; compound at 1×10^−3 M; cAMP produced as percentage of that produced by hPTH(1-34) at 100 nM

| cAMP production activity (%) | Compound |
| --- | --- |
| 71 | Cc1noc(C2CCN(C(=O)c3ccc(CCS(=O)(=O)N4CCC5(CC4)N=C(c4cccc(C(F)(F)F)c4)NC5=O)c(C)c3)CC2)n1 [Compound 358, 8-(2-{2-methyl-4-[4-(3-methyl-[1,2,4]oxadiazol-5-yl)-piperidine-1-carbonyl]-phenyl}-ethanesulfonyl)-2-(3-trifluoromethyl-phenyl)-1,3,8-triaza-spiro[4.5]dec-1-en-4-one] |
| 4.4 | O=C1NC(C2(c3ccccc3)CCCCC2)=NC12CCN(S(=O)(=O)c1cccc(Cl)c1)CC2 [Compound 33, 8-(3-chloro-benzenesulfonyl)-2-(1-phenyl-cyclohexyl)-1,3,8-triaza-spiro[4.5]dec-1-en-4-one] |
| 109 | Cc1cc(C(=O)N2CCC(C)(O)CC2)cc(C)c1CCS(=O)(=O)N1CCC2(CC1)N=C(C1CCC(CCC(F)(F)F)CC1)NC2=O (centres unmarked) [Compound 1380, 8-{2-[4-(4-hydroxy-4-methyl-piperidine-1-carbonyl)-2,6-dimethyl-phenyl]-ethanesulfonyl}-2-[4-(3,3,3-trifluoro-propyl)-cyclohexyl]-1,3,8-triaza-spiro[4.5]dec-1-en-4-one] |
| 99 | Cc1cc(N2C(=O)CC[C@@H]2CO)ccc1CCS(=O)(=O)N1CCC2(CC1)N=C(c1cccc(C(F)(F)F)c1)NC2=O [Compound 268, 8-{2-[4-((R)-2-Hydroxymethyl-5-oxo-pyrrolidin-1-yl)-2-methyl-phenyl]-ethanesulfonyl}-2-(3-trifluoromethyl-phenyl)-1,3,8-triaza-spiro[4.5]dec-1-en-4-one] |
| 74 | CC(=O)N(CCO)c1cc(C)c(/C=C/S(=O)(=O)N2CCC3(CC2)N=C(c2ccc(F)c(C(F)(F)F)c2)NC3=O)c(C)c1 [Compound 718, N-(4-{(E)-2-[2-(4-Fluoro-3-trifluoromethyl-phenyl)-4-oxo-1,3,8-triaza-spiro[4.5]dec-1-ene-8-sulfonyl]-vinyl}-3,5-dimethyl-phenyl)-N-(2-hydroxy-ethyl)-acetamide] |
| 27 | Cc1cc(CN(C)C(=O)OC(C)(C)C)ccc1CCS(=O)(=O)N1CCC2(CC1)N=C(C1CCCCC1)NC2=O [Compound 673, {4-[2-(2-cyclohexyl-4-oxo-1,3,8-triaza-spiro[4.5]dec-1-ene-8-sulfonyl)-ethyl]-3-methyl-benzyl}-methyl-carbamic acid tert-butyl ester] |
| 77 | Cc1cc(N(CCO)S(C)(=O)=O)ccc1/C=C/S(=O)(=O)N1CCC2(CC1)N=C(c1cccc(OC(F)(F)F)c1)NC2=O [Compound 719, N-(2-Hydroxy-ethyl)-N-(3-methyl-4-{(E)-2-[4-oxo-2-(3-trifluoromethoxy-phenyl)-1,3,8-triaza-spiro[4.5]dec-1-ene-8-sulfonyl]-vinyl}-phenyl)-methanesulfonamide] |
| 95 | Cc1cc(N(C)C(N)=O)cc(C)c1CCS(=O)(=O)N1CCC2(CC1)N=C(CCCCCCCC(F)(F)C(F)(F)F)NC2=O [Compound 1302, 1-(3,5-dimethyl-4-{2-[4-oxo-2-(8,8,9,9,9-pentafluoro-nonyl)-1,3,8-triaza-spiro[4.5]dec-1-ene-8-sulfonyl]-ethyl}-phenyl)-1-methyl-urea] |
| 56 | CN(C)C(=O)Nc1ccc(/C=C/S(=O)(=O)N2CCC3(CC2)N=C(C2CCCCC2)NC3=O)c(C(F)(F)F)c1 [Compound 194, 3-{4-[(E)-2-(2-cyclohexyl-4-oxo-1,3,8-triaza-spiro[4.5]dec-1-ene-8-sulfonyl)-vinyl]-3-trifluoromethyl-phenyl}-1,1-dimethyl-urea] |
| 10 | CCS(=O)(=O)CCCCCCC1=NC2(CCN(S(=O)(=O)CCc3c(C)cc(N(C)C(N)=O)cc3C)CC2)C(=O)N1 [Compound 1320, 1-(4-{2-[2-(6-ethanesulfonyl-hexyl)-4-oxo-1,3,8-triaza-spiro[4.5]dec-1-ene-8-sulfonyl]-ethyl}-3,5-dimethyl-phenyl)-1-methyl-urea] |
| 88 | CC(=O)Nc1ccc(CCS(=O)(=O)N2CCC3(CC2)N=C(C2CCC(=CCC(F)F)CC2)NC3=O)c(C)c1 (centres unmarked) [Compound 1076, N-[4-(2-{2-[4-(3,3-difluoro-propylidene)-cyclohexyl]-4-oxo-1,3,8-triaza-spiro[4.5]dec-1-ene-8-sulfonyl}-ethyl)-3-methyl-phenyl]-acetamide] |
| 60 | Cc1cc(N(CCO)C(=O)CO)ccc1/C=C/S(=O)(=O)N1CCC2(CC1)N=C(c1cccc(OC(F)(F)F)c1)NC2=O [Compound 722, 2-Hydroxy-N-(2-hydroxy-ethyl)-N-(3-methyl-4-{(E)-2-[4-oxo-2-(3-trifluoromethoxy-phenyl)-1,3,8-triaza-spiro[4.5]dec-1-ene-8-sulfonyl]-vinyl}-phenyl)-acetamide] |
| 109 | O=C1NC(C2CCCCC2)=NC12CCN(S(=O)(=O)CCc1ccc3c(ccn3C[C@H](O)CO)c1)CC2 [Compound 872, 2-cyclohexyl-8-{2-[1-((S)-2,3-dihydroxy-propyl)-1H-indol-5-yl]-ethanesulfonyl}-1,3,8-triaza-spiro[4.5]dec-1-en-4-one] |
| 86 | Cc1cc(C(=O)N2CCN(CCF)CC2)cc(C)c1/C=C/S(=O)(=O)N1CCC2(CC1)N=C(C1CCC(CCC(F)(F)F)CC1)NC2=O (centres unmarked) [Compound 549, 8-((E)-2-{4-[4-(2-fluoro-ethyl)-piperazine-1-carbonyl]-2,6-dimethyl-phenyl}-ethenesulfonyl)-2-[4-(3,3,3-trifluoro-propyl)-cyclohexyl]-1,3,8-triaza-spiro[4.5]dec-1-en-4-one] |
| 51 | O=C1NC(c2cccc(OC(F)(F)F)c2)=NC12CCN(S(=O)(=O)/C=C/c1ccc3c(ccn3C[C@H](O)CO)c1)CC2 [Compound 597, 8-{(E)-2-[1-((S)-2,3-dihydroxy-propyl)-1H-indol-5-yl]-ethenesulfonyl}-2-(3-trifluoromethoxy-phenyl)-1,3,8-triaza-spiro[4.5]dec-1-en-4-one] |
| 111 | Cc1cc(N(C)C(N)=O)cc(C)c1CCS(=O)(=O)N1CCC2(CC1)N=C([C@@H]1C[C@H](C)C[C@H](C)C1)NC2=O [Compound 1040, 1-(4-{2-[2-((1S,3S,5R)-3,5-dimethyl-cyclohexyl)-4-oxo-1,3,8-triaza-spiro[4.5]dec-1-ene-8-sulfonyl]-ethyl}-3,5-dimethyl-phenyl)-1-methyl-urea] |
| 68 | Cc1cc(N2CCN(CCO)C2=O)ccc1CCS(=O)(=O)N1CCC2(CC1)N=C(c1cccc(C(F)(F)F)c1)NC2=O [Compound 674, 8-(2-{4-[3-(2-Hydroxy-ethyl)-2-oxo-imidazolidin-1-yl]-2-methyl-phenyl}-ethanesulfonyl)-2-(3-trifluoromethyl-phenyl)-1,3,8-triaza-spiro[4.5]dec-1-en-4-one] |
| 43 | Cc1cc(C(=O)N2CCC[C@@H]2C(N)=O)ccc1CCS(=O)(=O)N1CCC2(CC1)N=C(c1cccc(C(F)(F)F)c1)NC2=O [Compound 369, (R)-1-(3-methyl-4-{2-[4-oxo-2-(3-trifluoromethyl-phenyl)-1,3,8-triaza-spiro[4.5]dec-1-ene-8-sulfonyl]-ethyl}-benzoyl)-pyrrolidine-2-carboxylic acid amide] |
| 4.5 | Cc1cc(C(=O)N(C)C)ccc1CCS(=O)(=O)N1CCC2(CC1)N=C(c1ccc3ncsc3c1)NC2=O [Compound 143, 4-[2-(2-benzothiazol-6-yl-4-oxo-1,3,8-triaza-spiro[4.5]dec-1-ene-8-sulfonyl)-ethyl]-3,N,N-trimethyl-benzamide] |
| 92 | Cc1cc(N(CCO)C(=O)CO)ccc1CCS(=O)(=O)N1CCC2(CC1)N=C(c1cccc(OC(F)(F)F)c1)NC2=O [Compound 930, 2-Hydroxy-N-(2-hydroxy-ethyl)-N-(3-methyl-4-{2-[4-oxo-2-(3-trifluoromethoxy-phenyl)-1,3,8-triaza-spiro[4.5]dec-1-ene-8-sulfonyl]-ethyl}-phenyl)-acetamide] |
| 64 | Cc1cc(C(=O)N2CCCO2)cc(C)c1/C=C/S(=O)(=O)N1CCC2(CC1)N=C(C1CCC(C)CC1)NC2=O (centres unmarked) [Compound 1001, 8-{(E)-2-[4-(isoxazolidine-2-carbonyl)-2,6-dimethyl-phenyl]-ethenesulfonyl}-2-(4-methyl-cyclohexyl)-1,3,8-triaza-spiro[4.5]dec-1-en-4-one] |
| 13 | Cc1cc(N(C)C(N)=O)cc(C)c1CC1(S(=O)(=O)N2CCC3(CC2)N=C(c2cccc(OC(F)(F)F)c2)NC3=O)CC1 [Compound 1084, 1-(3,5-Dimethyl-4-{1-[4-oxo-2-(3-trifluoromethoxy-phenyl)-1,3,8-triaza-spiro[4.5]dec-1-ene-8-sulfonyl]-cyclopropylmethyl}-phenyl)-1-methyl-urea] |

| Compound | cAMP production activity (%) |
| --- | --- |
| [2H]C([2H])([2H])C([2H])([2H])C([2H])([2H])C([2H])([2H])Oc1ccc(C2=NC3(CCN(S(=O)(=O)/C=C/c4c(C)cc(C(=O)N5CCC(C)(O)CC5)cc4C)CC3)C(=O)N2)cc1C(F)(F)F [Compound 1220, 2-(4-[1,1,2,2,3,3,4,4,4-^2H9]butoxy-3-trifluoromethyl-phenyl)-8-{(E)-2-[4-(4-hydroxy-4-methyl-piperidine-1-carbonyl)-2,6-dimethyl-phenyl]-ethenesulfonyl}-1,3,8-triaza-spiro[4.5]dec-1-en-4-one] | 80 |
